From ChEMBL document CHEMBL1221220, “Transport and signaling via the amino acid binding site of the yeast Gap1 amino acid transceptor” (Nat Chem Biol, 2009)
Changes are numbered by the printed parent chain. Activity calls are given as the source filed them. The rule behind the calls is not given here.

What was measured:
[1] = test system: T1, General amino-acid permease GAP1 (Saccharomyces cerevisiae), P19145 [C397C]; assay: Activation of yeast Gap1 C397C mutant-mediated amino acid uptake at 10 mM
T1 sequence (whole entry): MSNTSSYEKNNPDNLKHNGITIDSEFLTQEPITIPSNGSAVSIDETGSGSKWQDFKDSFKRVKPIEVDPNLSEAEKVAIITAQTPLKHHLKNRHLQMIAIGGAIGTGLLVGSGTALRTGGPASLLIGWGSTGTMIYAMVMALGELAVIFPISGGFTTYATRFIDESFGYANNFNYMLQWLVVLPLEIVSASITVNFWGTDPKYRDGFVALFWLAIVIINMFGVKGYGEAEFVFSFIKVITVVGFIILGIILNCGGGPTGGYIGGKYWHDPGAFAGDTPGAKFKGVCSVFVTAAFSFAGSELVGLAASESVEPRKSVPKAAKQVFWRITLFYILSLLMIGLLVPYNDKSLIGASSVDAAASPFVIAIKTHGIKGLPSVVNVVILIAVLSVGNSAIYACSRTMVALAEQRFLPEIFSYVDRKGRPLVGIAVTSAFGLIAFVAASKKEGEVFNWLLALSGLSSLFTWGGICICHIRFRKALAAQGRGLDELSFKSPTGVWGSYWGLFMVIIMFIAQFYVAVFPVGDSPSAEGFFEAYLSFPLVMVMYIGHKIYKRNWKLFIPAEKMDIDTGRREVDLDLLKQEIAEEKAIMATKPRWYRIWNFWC

[2] = test system: T2, General amino-acid permease GAP1 (Saccharomyces cerevisiae), P19145 [A385C]; assay: Induction of yeast Gap1 A385C mutant-mediated trehalose activation at 10 mM
T2 sequence (whole entry): T1 sequence (whole entry) with A385C

[3] = test system: T3, General amino-acid permease GAP1 (Saccharomyces cerevisiae), P19145 [L387C]; assay: Induction of yeast Gap1 L387C mutant-mediated trehalose activation at 10 mM
T3 sequence (whole entry): T1 sequence (whole entry) with L387C

[4] = test system: T4, General amino-acid permease GAP1 (Saccharomyces cerevisiae), P19145 [N391C]; assay: Induction of yeast Gap1 N391C mutant-mediated amino acid uptake at 2 mM in presence of 10 mM MTSEA treated before compound addition
T4 sequence (whole entry): T1 sequence (whole entry) with N391C

Compound: NC(=O)NCCC[C@H](N)C(=O)O
- Activity [1]: inactive
- Activity [2]: inactive
- Activity [3]: inactive
- Activity [4]: Active
